Data reported in ChEMBL document CHEMBL1201862, “PubChem BioAssay data set” (2004).
Active and inactive are the calls of the source.

Key:
Cytochrome P450 2D6 = Cytochrome P450 2D6 (Homo sapiens, UniProt P10635);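 further: CYP2D6 member of a cytochrome P450 panel assay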
[1] = inhibitors of HIV Env-driven cell fusion, dose response, cherry-pick (AID 652057); type: functional, cell-based
[2] = target: T1, Latent membrane protein 1 (Human herpesvirus 4 (strain B95-8), UniProt P03230); assay: TES1-eGFP NF-kB reporter inhibition versus Tet-On dsRED, dose response, selectivity assay for LMP1 NF-kB inhibitor project, imaging, HEK293T, dual-color eGFP/dsRED, cherry-picks (AID 588398); type: functional, cell-based
T1 sequence (P03230 whole entry): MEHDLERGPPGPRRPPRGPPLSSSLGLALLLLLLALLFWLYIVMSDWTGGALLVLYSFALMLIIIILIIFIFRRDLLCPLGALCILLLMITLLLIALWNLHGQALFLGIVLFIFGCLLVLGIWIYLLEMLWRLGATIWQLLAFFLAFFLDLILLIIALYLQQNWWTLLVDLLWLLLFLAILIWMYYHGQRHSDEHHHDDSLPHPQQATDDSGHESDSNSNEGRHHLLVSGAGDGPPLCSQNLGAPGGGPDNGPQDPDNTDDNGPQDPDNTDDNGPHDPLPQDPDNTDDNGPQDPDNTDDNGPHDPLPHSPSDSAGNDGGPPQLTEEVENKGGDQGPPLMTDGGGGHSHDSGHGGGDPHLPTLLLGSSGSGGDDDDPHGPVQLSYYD

HEK293 = assay: inhibitors of LMP1-driven NF-kB reporter, dose response, cell-based, HEK293, luciferase, cherry-pick (AID 588343); type: functional; conditions: Homo sapiens
Cytochrome P450 1A2 = target: T2, Cytochrome P450 1A2 (Homo sapiens, UniProt P05177);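 further: PubChem cytochrome P450 panel assay, CYP1A2 panel member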
T2 sequence (P05177 whole entry): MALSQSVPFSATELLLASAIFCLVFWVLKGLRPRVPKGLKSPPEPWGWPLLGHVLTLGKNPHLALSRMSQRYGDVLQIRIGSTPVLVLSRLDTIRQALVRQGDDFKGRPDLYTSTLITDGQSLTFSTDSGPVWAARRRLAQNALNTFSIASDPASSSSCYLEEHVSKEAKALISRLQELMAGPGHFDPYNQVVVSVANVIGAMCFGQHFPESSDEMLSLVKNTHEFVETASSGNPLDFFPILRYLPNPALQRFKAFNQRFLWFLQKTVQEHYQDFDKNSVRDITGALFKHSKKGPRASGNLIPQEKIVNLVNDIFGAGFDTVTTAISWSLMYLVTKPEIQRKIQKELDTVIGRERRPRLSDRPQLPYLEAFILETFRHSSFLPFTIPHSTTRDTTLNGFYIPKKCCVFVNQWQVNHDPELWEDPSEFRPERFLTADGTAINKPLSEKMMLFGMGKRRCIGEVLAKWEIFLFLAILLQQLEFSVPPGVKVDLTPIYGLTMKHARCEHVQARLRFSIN

[3] = inhibitors of clade B AD8 Env fusion, dose response, cell-based, cherry-pick (AID 652062); type: functional;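 further: luciferase signal from cell-cell fusion driven by HIV-1 clade B AD8 Env; potency is for inhibitors of fusion seen as a drop in luminescence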
Cytochrome P450 2C19 = Cytochrome P450 2C19 (Homo sapiens, UniProt P33261); assay: Cytochrome panel assay with activity outcomes. Panel member name: p450-cyp2c19 Compounds with AC50 equal or less than 10 uM are considered active; type: functional; conditions: read-out: AC50
Cytochrome P450 2C19, sequence (P33261 whole entry): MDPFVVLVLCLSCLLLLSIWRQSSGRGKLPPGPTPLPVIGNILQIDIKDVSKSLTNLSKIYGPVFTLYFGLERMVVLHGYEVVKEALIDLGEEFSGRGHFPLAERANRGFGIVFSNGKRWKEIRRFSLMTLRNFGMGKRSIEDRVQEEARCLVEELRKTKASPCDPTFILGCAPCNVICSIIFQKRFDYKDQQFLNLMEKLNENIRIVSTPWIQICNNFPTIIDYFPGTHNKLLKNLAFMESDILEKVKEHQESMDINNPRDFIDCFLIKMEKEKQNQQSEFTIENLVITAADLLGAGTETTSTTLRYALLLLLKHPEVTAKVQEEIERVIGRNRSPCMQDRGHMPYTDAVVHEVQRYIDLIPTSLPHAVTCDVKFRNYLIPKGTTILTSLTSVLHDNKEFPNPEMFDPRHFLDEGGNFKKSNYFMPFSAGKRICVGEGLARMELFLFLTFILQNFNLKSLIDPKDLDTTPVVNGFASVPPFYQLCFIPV

BJ [4] = assay: cytotoxicity toward BJ-TERT fibroblasts, dose response, cell-based, RAS-independent, luminescence (AID 1933); type: functional; conditions: Homo sapiens
[5] = cytotoxicity toward DRD oncogenic fibroblasts, dose response, cell-based, non-viral oncogenic, luminescence (AID 1934); type: functional; conditions: Homo sapiens
BJ [6] = assay: cytotoxicity toward BJ-TERT-LT-ST fibroblasts, dose response, cell-based, RAS-independent, luminescence (AID 1935); type: functional; conditions: Homo sapiens;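 further: BJ fibroblasts immortalized with TERT plus LT and ST oncogenes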
BJ [7] = assay: cells; type: functional, cell-based; conditions: Homo sapiens
BJ [8] = assay: cytotoxicity toward Ras-transformed BJeLR fibroblasts, dose response, cell-based, alamar blue fluorescence, cherrypicked samples (AID 2631); type: functional; conditions: Homo sapiens;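 further: confirmatory dose-response assay in RAS-dependent BJ fibroblasts engineered with TERT, LT and ST, with cytotoxicity read by fluorescence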
[9] = StAR promoter reporter inhibition counter-screen, dose response, counter-screen for LRH-1 inverse agonist project, cell-based, luminescence, luciferase reporter (AID 651969); type: functional
[10] = target: Nuclear receptor subfamily 5 group A member 2 (Homo sapiens, UniProt O00482); type: functional, cell-based;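 further: HEK293T cells transfected with LRH-1 and a StAR promoter luciferase reporter; potency for inhibitors that lower LRH-1 driven reporter light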
Nuclear receptor subfamily 5 group A member 2, sequence (O00482 whole entry): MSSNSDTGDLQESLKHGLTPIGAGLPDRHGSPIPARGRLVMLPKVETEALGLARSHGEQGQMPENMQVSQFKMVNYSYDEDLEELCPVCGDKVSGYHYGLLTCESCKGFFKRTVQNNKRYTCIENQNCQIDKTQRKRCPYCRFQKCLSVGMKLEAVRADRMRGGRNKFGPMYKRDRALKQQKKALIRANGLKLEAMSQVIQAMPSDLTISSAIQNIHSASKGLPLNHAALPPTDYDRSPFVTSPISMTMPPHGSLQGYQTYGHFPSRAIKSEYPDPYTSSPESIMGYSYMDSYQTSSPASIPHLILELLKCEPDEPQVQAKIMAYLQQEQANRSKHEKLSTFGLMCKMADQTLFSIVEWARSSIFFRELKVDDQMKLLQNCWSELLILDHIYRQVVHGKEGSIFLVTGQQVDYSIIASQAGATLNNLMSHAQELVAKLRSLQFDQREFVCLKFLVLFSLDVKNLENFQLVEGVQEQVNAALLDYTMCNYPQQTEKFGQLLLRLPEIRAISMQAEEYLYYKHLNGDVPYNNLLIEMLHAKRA

Steroidogenic factor 1 = Steroidogenic factor 1 (Homo sapiens, UniProt Q13285); assay: Counterscreen for inverse agonists of the liver receptor homolog-1 (LRH-1; NR5A2): Luminescence-based cell-based high throughput dose response assay to identify inverse agonists of the Steroidogenic Factor 1 Nuclear Receptor (SF1; NR5A1).; type: functional
Steroidogenic factor 1, sequence (Q13285 whole entry): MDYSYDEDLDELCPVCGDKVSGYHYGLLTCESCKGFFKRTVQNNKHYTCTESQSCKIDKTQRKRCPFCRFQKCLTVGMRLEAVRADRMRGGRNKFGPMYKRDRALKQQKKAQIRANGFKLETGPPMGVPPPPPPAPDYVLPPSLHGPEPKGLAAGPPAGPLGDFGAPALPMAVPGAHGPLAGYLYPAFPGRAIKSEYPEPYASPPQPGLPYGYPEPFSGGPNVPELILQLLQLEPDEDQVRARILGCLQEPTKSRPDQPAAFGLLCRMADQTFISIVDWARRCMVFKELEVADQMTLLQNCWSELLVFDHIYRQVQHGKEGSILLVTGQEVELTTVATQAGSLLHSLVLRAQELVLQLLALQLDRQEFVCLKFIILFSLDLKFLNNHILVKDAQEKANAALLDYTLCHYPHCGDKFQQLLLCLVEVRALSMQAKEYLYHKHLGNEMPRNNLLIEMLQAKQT

[11] = target: Adenosylmethionine-8-amino-7-oxononanoate aminotransferase (Mycobacterium tuberculosis, UniProt P9WQ81); assay: Mycobacterium tuberculosis BioA enzyme inhibitor Measured in Biochemical System Using Plate Reader - 2163-02_Inhibitor_Dose_CherryPick_Activity.; type: functional, Mycobacterium tuberculosis UT205
Adenosylmethionine-8-amino-7-oxononanoate aminotransferase, sequence (P9WQ81 whole entry, the tested form may be a part): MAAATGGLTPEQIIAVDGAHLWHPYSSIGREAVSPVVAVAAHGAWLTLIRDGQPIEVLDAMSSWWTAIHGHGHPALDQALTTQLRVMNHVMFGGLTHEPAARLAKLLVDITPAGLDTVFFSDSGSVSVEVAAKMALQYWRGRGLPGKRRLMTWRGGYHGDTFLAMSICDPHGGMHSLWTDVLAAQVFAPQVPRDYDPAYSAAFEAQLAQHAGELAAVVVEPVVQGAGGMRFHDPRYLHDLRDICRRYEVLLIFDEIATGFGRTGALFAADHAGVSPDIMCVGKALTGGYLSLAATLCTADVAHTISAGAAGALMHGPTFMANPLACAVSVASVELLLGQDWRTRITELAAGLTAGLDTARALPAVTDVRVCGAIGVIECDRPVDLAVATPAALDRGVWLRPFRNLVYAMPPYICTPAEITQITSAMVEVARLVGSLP

[12] = Fluorescence-based cell-based high throughput dose response assay for inhibitors of the interaction of nucleotide-binding oligomerization domain containing 2 (NOD2) and the receptor-interacting serine-threonine kinase 2 (RIPK2).; type: functional; conditions: Homo sapiens
[13] = target: T3, Rac GTPase-activating protein 1 (Homo sapiens, UniProt Q9H0H5); assay: MgcRacGAP GTPase-activating activity inhibitors, confirmation, biochemical, ADP Hunter fluorescence, primary and confirmatory (AID 624330); type: functional
T3 sequence (Q9H0H5 whole entry): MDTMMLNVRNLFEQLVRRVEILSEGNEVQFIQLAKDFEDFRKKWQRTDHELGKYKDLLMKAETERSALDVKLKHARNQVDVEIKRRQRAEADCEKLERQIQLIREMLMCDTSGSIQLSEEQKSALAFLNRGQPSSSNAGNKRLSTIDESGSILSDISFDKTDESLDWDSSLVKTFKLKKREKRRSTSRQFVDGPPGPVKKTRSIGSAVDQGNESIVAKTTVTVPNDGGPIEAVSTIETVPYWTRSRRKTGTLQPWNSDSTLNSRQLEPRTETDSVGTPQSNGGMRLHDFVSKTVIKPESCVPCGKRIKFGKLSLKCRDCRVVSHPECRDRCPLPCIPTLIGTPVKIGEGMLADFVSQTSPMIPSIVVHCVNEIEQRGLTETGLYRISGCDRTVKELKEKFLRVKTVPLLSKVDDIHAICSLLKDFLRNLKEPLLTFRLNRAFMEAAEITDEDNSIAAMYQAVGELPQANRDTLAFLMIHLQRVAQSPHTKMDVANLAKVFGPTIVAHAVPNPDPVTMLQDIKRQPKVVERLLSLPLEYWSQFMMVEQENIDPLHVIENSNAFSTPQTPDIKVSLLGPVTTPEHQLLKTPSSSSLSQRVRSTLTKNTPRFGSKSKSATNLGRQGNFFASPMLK

[14] = target: T4, Microphthalmia-associated transcription factor (Homo sapiens, UniProt O75030); assay: TRPM1 promoter luciferase signal decrease, dose response, MITF inhibitor project, cell-based, SK-MEL-5, cherry-picked, set 3 (AID 493073); type: functional
T4 sequence (O75030 whole entry): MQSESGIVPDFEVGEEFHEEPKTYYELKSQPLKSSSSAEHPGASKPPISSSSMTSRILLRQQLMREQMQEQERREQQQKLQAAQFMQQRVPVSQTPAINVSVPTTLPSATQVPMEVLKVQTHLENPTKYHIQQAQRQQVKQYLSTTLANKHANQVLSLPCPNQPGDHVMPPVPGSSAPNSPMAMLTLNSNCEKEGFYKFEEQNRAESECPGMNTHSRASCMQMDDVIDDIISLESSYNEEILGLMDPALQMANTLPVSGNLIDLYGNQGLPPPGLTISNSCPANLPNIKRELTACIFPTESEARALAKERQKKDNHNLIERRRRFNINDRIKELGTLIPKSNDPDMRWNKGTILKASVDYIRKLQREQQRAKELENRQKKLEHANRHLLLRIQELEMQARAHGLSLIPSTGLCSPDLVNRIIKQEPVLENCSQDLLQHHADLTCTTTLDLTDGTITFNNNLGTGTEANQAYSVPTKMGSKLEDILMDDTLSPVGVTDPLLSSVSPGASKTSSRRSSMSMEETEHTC

cells = type: functional

Cytochrome P450 2D6, sequence (P10635 whole entry, the tested form may be a part): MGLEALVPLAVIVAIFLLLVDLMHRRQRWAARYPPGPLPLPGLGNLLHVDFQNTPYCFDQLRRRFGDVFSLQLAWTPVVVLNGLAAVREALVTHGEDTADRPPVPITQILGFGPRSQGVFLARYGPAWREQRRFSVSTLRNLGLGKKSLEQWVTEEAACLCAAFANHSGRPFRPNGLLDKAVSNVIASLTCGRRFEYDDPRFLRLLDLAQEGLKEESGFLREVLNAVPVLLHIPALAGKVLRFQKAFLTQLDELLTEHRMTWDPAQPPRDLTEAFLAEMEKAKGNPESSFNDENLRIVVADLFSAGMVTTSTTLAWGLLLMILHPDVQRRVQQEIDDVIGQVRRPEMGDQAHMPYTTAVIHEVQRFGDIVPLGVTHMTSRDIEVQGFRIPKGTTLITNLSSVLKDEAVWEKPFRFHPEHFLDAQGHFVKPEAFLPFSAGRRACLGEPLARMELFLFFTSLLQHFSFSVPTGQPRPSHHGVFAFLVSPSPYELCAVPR

COc1ccc(S(=O)(=O)NNC(=O)C2Cc3c(ccc4ccccc34)O2)cc1 (centres undefined)
AC50 (Cytochrome P450 2D6): 39.8 µM (inconclusive)
AC50 [1]: 43.7 µM (active)
AC50 [2]: 74.8 µM (active)
AC50 (HEK293): > 350 µM (inactive)
AC50 (Cytochrome P450 1A2): 25.1 µM (inconclusive)
AC50 [3]: 13.2 µM (active)
AC50 (Cytochrome P450 2C19): 5.62 µM (inconclusive)

Cc1ccc(/C=C2\SC(=S)N(CCCC(=O)N3CCOCC3)C2=O)cc1
EC50 (BJ [4]): 7.06 µM (inconclusive)
EC50 [5]: 15.3 µM (active)
EC50 (BJ [6]): > 150 µM (inconclusive)
EC50 (BJ [7]): > 150 µM (not active)
EC50 (BJ [8]): > 66.7 µM (inactive)

O=C(NCC1CCCO1)c1ccc(NC(=O)c2cccc([N+](=O)[O-])c2)cc1 (centres undefined)
IC50 [9]: 35.9 µM (inactive)
IC50 [10]: 3.99 µM (active)
IC50 (Steroidogenic factor 1): 1.32 µM (active)

COc1ccc(Nc2c(-c3ccc(OC)cc3)nc3cnccn23)cc1
AC50 [11]: 1.34 µM (active)

CCN(CC)CCC(=O)N1C/C(=C/c2ccccc2)C(=O)/C(=C\c2ccccc2)C1
IC50 [12]: 3.5 µM (active)
AC50 (HEK293): 4.89 µM (active)
IC50 [13]: 111 µM (active)
AC50 [14]: 4.72 µM (active)

Cc1ccc(NC(=O)COC(=O)C(NS(=O)(=O)c2ccc(Cl)cc2)C(C)O)cc1C (centres undefined)
IC50 [9]: 35.9 µM (inactive)
IC50 [10]: 12 µM (inactive)
IC50 (Steroidogenic factor 1): 2.17 µM (active)
IC50 (cells): 6.57 µM (active)
